Assay results taken from US9409917B2, “Heterocyclic amide derivatives as P2X7 receptor antagonists” (ACTELION PHARMACEUTICALS LTD., priority 2012, dated 2016).

Target: human recombinant P2X7 receptor (Homo sapiens (Human), UniProt Q99572)
Test: YO-PRO assay: P2X7 receptor antagonistic activity (ATP-induced YO-PRO-1 uptake, FLIPR)
Conditions: not given

Chain of human recombinant P2X7 receptor (Q99572 whole entry): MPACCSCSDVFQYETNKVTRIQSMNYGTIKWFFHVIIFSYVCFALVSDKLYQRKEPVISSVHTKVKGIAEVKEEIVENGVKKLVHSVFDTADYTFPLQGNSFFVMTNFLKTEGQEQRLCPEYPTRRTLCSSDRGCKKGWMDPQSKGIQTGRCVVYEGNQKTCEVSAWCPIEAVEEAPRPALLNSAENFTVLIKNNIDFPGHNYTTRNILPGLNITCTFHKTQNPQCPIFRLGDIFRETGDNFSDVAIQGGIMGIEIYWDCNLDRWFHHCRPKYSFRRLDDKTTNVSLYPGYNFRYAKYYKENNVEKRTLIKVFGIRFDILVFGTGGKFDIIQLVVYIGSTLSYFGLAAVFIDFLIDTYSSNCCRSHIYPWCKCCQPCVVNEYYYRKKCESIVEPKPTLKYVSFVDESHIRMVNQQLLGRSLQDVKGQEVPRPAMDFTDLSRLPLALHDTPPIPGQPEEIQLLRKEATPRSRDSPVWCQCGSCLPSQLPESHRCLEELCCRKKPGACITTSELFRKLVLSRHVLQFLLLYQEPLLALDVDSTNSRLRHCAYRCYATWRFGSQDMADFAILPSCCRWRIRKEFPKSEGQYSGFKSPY

SMILES	IC50 [nM]
O=C(NCc1ccc(Cl)cc1Cl)C1COc2ncccc21 (racemic) [Example 5, rac-2,3-Dihydro-furo[2,3-b]pyridine-3-carboxylic acid 2,4-dichloro-benzylamide]	59.2
O=C(NCC1(O)CCCCC1)C1CCOc2ncccc21 (racemic) [Example 10, rac-3,4-Dihydro-2H-pyrano[2,3-b]pyridine-4-carboxylic acid (1-hydroxy-cyclohexylmethyl)-amide]	3170
Cc1cc(Cl)cc(Cl)c1CNC(=O)C1(F)COc2ncccc21 (racemic) [Example 11, rac-3-Fluoro-2,3-dihydro-furo[2,3-b]pyridine-3-carboxylic acid 2,4-dichloro-6-methyl-benzylamide]	4.8
Cc1cc(Cl)cc(Cl)c1CNC(=O)C1(F)CCOc2ncccc21 (racemic) [Example 12, rac-4-Fluoro-3,4-dihydro-2H-pyrano[2,3-b]pyridine-4-carboxylic acid 2,4-dichloro-6-methyl-benzylamide]	3.1
O=C(NCc1c(F)cc(Cl)cc1Cl)C1COc2ncccc21 (racemic) [Example 15, rac-2,3-Dihydro-furo[2,3-b]pyridine-3-carboxylic acid 2,4-dichloro-6-fluoro-benzylamide]	66.8
O=C(NCc1cccc(C(F)(F)F)c1Cl)C1COc2ncccc21 (racemic) [Example 16, rac-2,3-Dihydro-furo[2,3-b]pyridine-3-carboxylic acid 2-chloro-3-trifluoromethyl-benzylamide]	12.6
O=C(NCc1cccc(Cl)c1Cl)C1(F)COc2ncccc21 (racemic) [Example 20, rac-3-Fluoro-2,3-dihydro-furo[2,3-b]pyridine-3-carboxylic acid 2,3-dichloro-benzylamide]	67.9
O=C(NCc1c(Cl)cc(Cl)cc1C1CC1)C1COc2ncccc21 (racemic) [Example 21, rac-2,3-Dihydro-furo[2,3-b]pyridine-3-carboxylic acid 2,4-dichloro-6-cyclopropyl-benzylamide]	12.9
CCc1cc(Cl)cc(Cl)c1CNC(=O)C1COc2ncccc21 (racemic) [Example 22, rac-2,3-Dihydro-furo[2,3-b]pyridine-3-carboxylic acid 2,4-dichloro-6-ethyl-benzylamide]	1.5
C=Cc1cc(Cl)cc(Cl)c1CNC(=O)C1COc2ncccc21 (racemic) [Example 23, rac-2,3-Dihydro-furo[2,3-b]pyridine-3-carboxylic acid 2,4-dichloro-6-vinyl-benzylamide]	12.2
COc1cc(Cl)cc(Cl)c1CNC(=O)C1COc2ncccc21 (racemic) [Example 26, rac-2,3-Dihydro-furo[2,3-b]pyridine-3-carboxylic acid 2,4-dichloro-6-methoxy-benzylamide]	25.6
Cc1c(Cl)cccc1CNC(=O)C1CCOc2ncccc21 (racemic) [Example 31, rac-3,4-Dihydro-2H-pyrano[2,3-b]pyridine-4-carboxylic acid 3-chloro-2-methyl-benzylamide]	16
O=C(NCc1ccc(F)cc1Cl)C1CCOc2ncccc21 (racemic) [Example 32, rac-3,4-Dihydro-2H-pyrano[2,3-b]pyridine-4-carboxylic acid 2-chloro-4-fluoro-benzylamide]	25
O=C(NCc1ccc(Oc2ccccc2)cc1)C1CCOc2ncccc21 (racemic) [Example 33, rac-3,4-Dihydro-2H-pyrano[2,3-b]pyridine-4-carboxylic acid 4-phenoxy-benzylamide]	255
O=C(NCc1cccc(Cl)c1Cl)C1CCOc2ncccc21 (racemic) [Example 34, rac-3,4-Dihydro-2H-pyrano[2,3-b]pyridine-4-carboxylic acid 2,3-dichloro-benzylamide]	10.7
O=C(NCc1ccc(Cl)cc1)C1CCOc2ncccc21 (racemic) [Example 35, rac-3,4-Dihydro-2H-pyrano[2,3-b]pyridine-4-carboxylic acid 4-chloro-benzylamide]	475
O=C(NCc1ccc(C(F)(F)F)cc1)C1CCOc2ncccc21 (racemic) [Example 36, rac-3,4-Dihydro-2H-pyrano[2,3-b]pyridine-4-carboxylic acid 4-trifluoromethyl-benzylamide]	334
O=C(NCCc1ccc(Cl)cc1Cl)C1CCOc2ncccc21 (racemic) [Example 38, rac-3,4-Dihydro-2H-pyrano[2,3-b]pyridine-4-carboxylic acid [2-(2,4-dichloro-phenyl)-ethyl]-amide]	67.1

SMILES	IC50 [nM]
O=C(NCc1ccc(Cl)cc1Cl)C1CCOc2ncccc21 (racemic) [Example 39, rac-3,4-Dihydro-2H-pyrano[2,3-b]pyridine-4-carboxylic acid 2,4-dichloro-benzylamide]	11.8
O=C(NCc1cccc(C(F)(F)F)c1Cl)C1CCOc2ncccc21 (racemic) [Example 40, rac-3,4-Dihydro-2H-pyrano[2,3-b]pyridine-4-carboxylic acid 2-chloro-3-trifluoromethyl-benzylamide]	2.7
Cc1c(Cl)cccc1CNC(=O)C1COc2ncccc21 (racemic) [Example 42, rac-2,3-Dihydro-furo[2,3-b]pyridine-3-carboxylic acid 3-chloro-2-methyl-benzylamide]	46.9
O=C(NCc1ccc(F)cc1Cl)C1COc2ncccc21 (racemic) [Example 43, rac-2,3-Dihydro-furo[2,3-b]pyridine-3-carboxylic acid 2-chloro-4-fluoro-benzylamide]	86.8
O=C(NCc1ccc(Oc2ccccc2)cc1)C1COc2ncccc21 (racemic) [Example 44, rac-2,3-Dihydro-furo[2,3-b]pyridine-3-carboxylic acid 4-phenoxy-benzylamide]	1120
O=C(NCc1cccc(Cl)c1Cl)C1COc2ncccc21 (racemic) [Example 45, rac-2,3-Dihydro-furo[2,3-b]pyridine-3-carboxylic acid 2,3-dichloro-benzylamide]	37.2
O=C(NCc1ccc(Cl)cc1)C1COc2ncccc21 (racemic) [Example 46, rac-2,3-Dihydro-furo[2,3-b]pyridine-3-carboxylic acid 4-chloro-benzylamide]	795
CN(Cc1ccc(Cl)cc1)C(=O)C1COc2ncccc21 (racemic) [Example 48, rac-2,3-Dihydro-furo[2,3-b]pyridine-3-carboxylic acid (4-chloro-benzyl)-methyl-amide]	1090
O=C(NCCc1ccc(Cl)cc1Cl)C1COc2ncccc21 (racemic) [Example 49, rac-2,3-Dihydro-furo[2,3-b]pyridine-3-carboxylic acid [2-(2,4-dichloro-phenyl)-ethyl]-amide]	157
O=C(NCc1c(Cl)cc(Cl)cc1OCCO)C1COc2ncccc21 (racemic) [Example 50, rac-2,3-Dihydro-furo[2,3-b]pyridine-3-carboxylic acid 2,4-dichloro-6-(2-hydroxy-ethoxy)-benzylamide]	54.6
O=C(NCc1c(Cl)cc(Cl)cc1CO)C1CCOc2ncccc21 (racemic) [Example 51, rac-3,4-Dihydro-2H-pyrano[2,3-b]pyridine-4-carboxylic acid 2,4-dichloro-6-hydroxymethyl-benzylamide]	5.6
O=C(NCc1ccc(OC(F)(F)F)c(F)c1)C1CCOc2ncccc21 (racemic) [Example 53, rac-3,4-Dihydro-2H-pyrano[2,3-b]pyridine-4-carboxylic acid 3-fluoro-4-trifluoromethoxy-benzylamide]	1190
O=C(NCC1(c2ccccc2)CCCCC1)C1CCOc2ncccc21 (racemic) [Example 54, rac-3,4-Dihydro-2H-pyrano[2,3-b]pyridine-4-carboxylic acid (1-phenyl-cyclohexylmethyl)-amide]	25.8
O=C(NCc1cccc(C(F)(F)F)c1Cl)C1(F)COc2ncccc21 (racemic) [Example 55, rac-3-Fluoro-2,3-dihydro-furo[2,3-b]pyridine-3-carboxylic acid 2-chloro-3-trifluoromethyl-benzylamide]	41.6
O=C(NC1(c2ccc(Cl)cc2Cl)CC1)C1CCOc2ncccc21 (racemic) [Example 58, rac-3,4-Dihydro-2H-pyrano[2,3-b]pyridine-4-carboxylic acid [1-(2,4-dichloro-phenyl)-cyclopropyl]-amide]	2700
N#Cc1ccc(CNC(=O)C2COc3ncccc32)c(Cl)c1 (racemic) [Example 61, rac-2,3-Dihydro-furo[2,3-b]pyridine-3-carboxylic acid 2-chloro-4-cyano-benzylamide]	389
NC(=O)C1(NC(=O)C2COc3ncccc32)CCCC1 (racemic) [Example 63, rac-2,3-Dihydro-furo[2,3-b]pyridine-3-carboxylic acid (1-carbamoyl-cyclopentyl)-amide]	3850

Same assay, conditions: read-out: IC50 [nM], antagonistic activities with respect to the P2X7 receptor

SMILES	IC50 [nM]
O=C(N[C@H](CO)C1CCCCC1)[C@H]1CCOc2ncccc21 (mixture of isomers) [Example 8, (S)-3,4-Dihydro-2H-pyrano[2,3-b]pyridine-4-carboxylic acid ((S)-1-cyclohexyl-2-hydroxy-ethyl)-amide and (R)-3,4-Dihydro-2H-pyrano[2,3-b]pyridine-4-carboxylic acid ((S)-1-cyclohexyl-2-hydroxy-ethyl)-amide]	127
Cc1cc(Cl)cc(Cl)c1CNC(=O)C1CCOc2c1ccc[n+]2[O-] (racemic) [Example 41, rac-8-Oxy-3,4-dihydro-2H-pyrano[2,3-b]pyridine-4-carboxylic acid 2,4-dichloro-6-methyl-benzylamide]	16.3

Same assay, conditions: read-out: IC50 [nM], antagonistic activities with respect to the P2X7 receptor; HEK-293 cells expressing human recombinant P2X7 receptor; YO-PRO-1 fluorescence; ATP 250 μM, 90 minutes; highest concentration 10 μM

SMILES	IC50 [nM]
O=C(N[C@H](CO)c1ccc(Cl)cc1Cl)[C@H]1CCOc2ncccc21 (mixture of isomers) [Example 9, (S)-3,4-Dihydro-2H-pyrano[2,3-b]pyridine-4-carboxylic acid [(S)-1-(2,4-dichloro-phenyl)-2-hydroxy-ethyl]-amide and (R)-3,4-Dihydro-2H-pyrano[2,3-b]pyridine-4-carboxylic acid [(S)-1-(2,4-dichloro-phenyl)-2-hydroxy-ethyl]-amide]	70.8
